Measured values from PMC11184554, “Nature-Inspired Gallinamides Are Potent Antischistosomal Agents: Inhibition of the Cathepsin B1 Protease Target and Binding Mode Analysis” (ACS Infectious Diseases, 2024).

What was measured:
[1] = system: recombinant SmCB1; assay: Kinetic inhibition assay with recombinant SmCB1 (k2nd); type: biochemical, S. mansoni; settings: for decrease in inhibitory potency vs gallinamide A / decrease in inhibition potency vs 8: ratio of k2nd values; for SmCB1 inhibition k2nd: second-order rate constant (kinact/Ki), substrate Cbz–Phe–Arg–AMC, pH 5.5, 37 °C, mean ± SE; for decrease in inhibition potency vs 8: range over the compounds named
Procedure: Gallinamide A and a series of its 18 derivatives were evaluated in vitro as inhibitors of SmCB1 to explore the binding specificities of the subsites in the enzyme’s active site. The gallinamide A inhibitor scaffold can be defined by positions P4 through P1′ (Schechter and Berger nomenclature[37]), which were assigned according to the binding mode analysis (see the crystallographic section below). The substituents R4, R1, and R1′ introduced on the scaffold (Table 2) are numbered according to the respective positions P4, P1, and P1′. The compounds’ second-order rate constants (k2nd) were determined using a kinetic inhibition assay with recombinant SmCB1 and the substrate, Cbz–Phe–Arg–AMC.
Inhibition measurements were performed in duplicate in 96-well microplates (100 μL assay volume) at 37 °C. SmCB1 (40 pM) was added to a mixture of the fluorogenic substrate Cbz–Phe–Arg–AMC (25 μM) and an inhibitor (0–100 μM) in 0.1 M sodium acetate, pH 5.5, containing 2.5 mM dithiothreitol and 0.01% (w/v) BRIJ 35. Substrate hydrolysis was monitored in an Infinite M1000 microplate reader (Tecan) at excitation and emission wavelengths of 360 and 465 nm, respectively, for up to 150 min. An observed first-order rate constant, kobs, was calculated at each inhibitor concentration by fitting the progress curve to the equation P = vi/kobs(1 – exp(−kobst)) + d where P is the product formation, t is the reaction time, vi is the initial velocity, and d is the offset. […] The second-order rate constant, k2nd, (and SE value) was determined by fitting the linear equation kobs = (k2nd[I])/(1 + [S]/Km), where [S] is the substrate concentration, [I] is the inhibitor concentration, and KM is the Michaelis–Menten constant. The KM value determined for SmCB1 was 25 μM. […] To determine IC50 values, SmCB1 (40 pM) was preincubated with the inhibitor (0–100 μM) for 30 min under assay conditions as described above, followed by the addition of the fluorogenic substrate Cbz–Phe–Arg–AMC (20 μM). Substrate hydrolysis was monitored for 30 min in a microplate reader as described above. The IC50 values were determined by nonlinear regression using GraFit software (Erithacus Software).

[2] = system: S. mansoni newly transformed schistosomula (NTS); assay: Phenotypic screen with newly transformed schistosomula (NTS); type: cell-based
Procedure: The same 19 gallinamides were screened for bioactivity against S. mansoni newly transformed schistosomula (NTS), the postinvasive parasite stage that feeds on host blood.[40] In this primary assay, the NTS were exposed to 1 and 10 μM compounds for 3 days, and the resulting phenotypic responses were graded from 0 through 4, i.e., the least to the most severe (Table 2 and Table S1). […] The effects were more pronounced after 72 h, and when the higher, 10 μM, compound concentration was used (Table S1). […] Also, compared to gallinamide A and its analogs, 3 has an additional N-terminal N-acetamide modification that further reduces bioactivity (Table 2).
Phenotypic screens employed S. mansoni newly transformed schistosomula (NTS) and adults and were carried out as described previously.[18]−[20],[42] NTS were prepared by mechanically transforming infective larvae (cercariae).[40],[42] NTS (200–300 parasites) were incubated in flat-bottomed 96-well plates in 200 μL of Basch Medium 169 containing 5% (v/v) FBS, 100 U mL^–1 penicillin and 100 μg mL^–1 streptomycin (complete Basch medium)[75] at 5% CO2 and 37 °C.[76],[77] Inhibitors were added at final concentrations of 1 and 10 μM, and changes in phenotypes were observed under an inverted microscope every 24 h for up to 72 h.
A constrained nomenclature of “descriptors”[39],[42] was used to record the multiple and dynamic changes in movement, shape, and translucence that the schistosome parasite is capable of (Table S1 for NTS and Table S3 for adults). These descriptors were then converted into an ordinal “severity score” system ranging from 0 (no effect) to 4 (maximum effect), which allows for the relative comparison of compound effects.

[3] = 1 μM compound, 24 h, scale 0 (no effect) to 4 (most severe)
[4] = 1 μM compound, 48 h, scale 0 to 4
[5] = 1 μM compound, 72 h, scale 0 to 4
[6] = 10 µM compound, 24 h, scale 0 to 4
[7] = 10 µM compound, 48 h, scale 0 to 4
[8] = 10 µM compound, 72 h, scale 0 to 4
[9] = Phe in R1′ changed from S to R configuration

With `COC1=CC(=O)N(C(=O)/C=C/[C@H](C)NC(=O)[C@H](CC(C)C)NC(=O)[C@H](CC(C)C)OC(=O)[C@H](C(C)C)N(C)C)[C@H]1C` [compound 2] the “decrease in inhibitory potency vs gallinamide A” value (shortened to “decrease in inhibitory potency”) [1] was 2 fold, the “SmCB1 inhibition k2nd” value [1] was 3334 ± 559 M^–1·s^–1 and the schistosomula severity score [2, 3] was 0. It also gave a schistosomula severity score [2, 4] of 1, a schistosomula severity score [2, 5] of 4 and a schistosomula severity score [2, 6] of 4. For the same compound, the schistosomula severity score [2, 7] was 4 and the schistosomula severity score [2, 8] was 4.
`CCC(C)C(NC(C)=O)C(=O)NC(CC(C)C)C(=O)NC(CC(C)C)C(=O)NC(C)C=CC(=O)N1C(=O)C=C(OC)C1C` (stereo not drawn) [compound 3] was tested, and the “decrease in inhibitory potency” value [1] was 2.3 fold, the “SmCB1 inhibition k2nd” value [1] was 2902 ± 172 M^–1·s^–1 and the schistosomula severity score [2, 3] was 0. The schistosomula severity score [2, 4] was 0, the schistosomula phenotype descriptors ([2]; 1 µM compound, 72 h) was “Dark, R” and the schistosomula severity score [2, 5] was 2. The schistosomula severity score [2, 6] was 0, the schistosomula phenotype descriptors ([2]; 10 µM compound, 48 h) was “Dark, R” and the schistosomula severity score [2, 7] was 2. The schistosomula phenotype descriptors ([2]; 10 µM compound, 72 h) was “Dark, R” and the schistosomula severity score [2, 8] was 2.
With `CCC(C)C(C(=O)NC(CC(C)C)C(=O)NC(CC(C)C)C(=O)NC(C)C=CC(=O)N1C(=O)C=C(OC)C1C)N(C)C` (stereo not drawn) [compound 4] the “decrease in inhibitory potency” value [1] was 2.3 fold, the “SmCB1 inhibition k2nd” value [1] was 2894 ± 113 M^–1·s^–1 and the schistosomula severity score [2, 3] was 0. For the same compound, the schistosomula severity score [2, 4] was 0, the schistosomula severity score [2, 5] was 4 and the schistosomula severity score [2, 6] was 1. It also gave a schistosomula severity score [2, 7] of 4 and a schistosomula severity score [2, 8] of 4.
`C#CCCCCOC1=CC(=O)N(C(=O)C=CC(C)NC(=O)C(CC(C)C)NC(=O)C(CC(C)C)OC(=O)C(C(C)CC)N(C)C)C1C` (stereo not drawn) [compound 5] was tested, and the “decrease in inhibitory potency” value [1] was 2.4 fold, the “SmCB1 inhibition k2nd” value [1] was 2792 ± 360 M^–1·s^–1 and the schistosomula severity score [2, 3] was 0. It also gave a schistosomula severity score [2, 4] of 4, a schistosomula severity score [2, 5] of 4 and a schistosomula severity score [2, 6] of 1. It also gave a schistosomula severity score [2, 7] of 4 and a schistosomula severity score [2, 8] of 4.
In the case of `CCC(C)C(C(=O)OC(CC(C)C)C(=O)NC(CC(C)C)C(=O)NC(C=CC(=O)N1C(=O)C=C(OC)C1Cc1ccccc1)Cc1ccccc1)N(C)C` (stereo not drawn) [compound 7], the “improvement of inhibition vs 14” value [1, 9] is reported as 17 fold, the “SmCB1 inhibition k2nd” value [1] is reported as 942 ± 50 M^–1·s^–1 and the schistosomula severity score [2, 3] is reported as 0. For the same compound, the schistosomula phenotype descriptors ([2]; 1 µM compound, 48 h) was “Dark, R, S”, the schistosomula severity score [2, 4] was 3 and the schistosomula severity score [2, 5] was 4. The schistosomula severity score [2, 6] was 1, the schistosomula severity score [2, 7] was 4 and the schistosomula severity score [2, 8] was 4.
`CCC(C)C(C(=O)OC(CC(C)C)C(=O)NC(CC(C)C)C(=O)NC(C=CC(=O)N1C(=O)C=C(OC)C1C)Cc1ccccc1)N(C)C` (stereo not drawn) [compound 8] was tested, and the “decrease in inhibitory potency” value [1] was 7.5 fold, the “SmCB1 inhibition k2nd” value [1] was 887 ± 46 M^–1·s^–1 and the schistosomula severity score [2, 3] was 1. The schistosomula severity score [2, 4] was 4, the schistosomula severity score [2, 5] was 4 and the schistosomula phenotype descriptors ([2]; 10 µM compound, 24 h) was “Dark, R, S”. It also gave a schistosomula severity score [2, 6] of 3, a schistosomula severity score [2, 7] of 4 and a schistosomula severity score [2, 8] of 4.
With `CCC(C)C(C(=O)OC(CC(C)C)C(=O)NC(CC(C)C)C(=O)NC(C=CC(=O)N1C(=O)C=C(OC)C1CC(C)C)Cc1ccccc1)N(C)C` (stereo not drawn) [compound 10] the “SmCB1 inhibition k2nd” value [1] was 537 ± 48 M^–1·s^–1, the schistosomula severity score [2, 3] was 0 and the schistosomula phenotype descriptors ([2]; 1 µM compound, 48 h) was “Dark, R”. For the same compound, the schistosomula severity score [2, 4] was 2, the schistosomula severity score [2, 5] was 4 and the schistosomula severity score [2, 6] was 0. It also gave a schistosomula severity score [2, 7] of 4 and a schistosomula severity score [2, 8] of 4.
For `COC1=CC(=O)N(C(=O)/C=C/[C@H](Cc2ccccc2)NC(=O)[C@H](CC(C)C)NC(=O)[C@H](CC(C)C)OC(=O)[C@H](C(C)C)N(C)C)[C@H]1CC(C)C` [compound 11], the “SmCB1 inhibition k2nd” value [1] was 295 ± 17 M^–1·s^–1, the schistosomula severity score [2, 3] was 1 and the schistosomula phenotype descriptors ([2]; 1 µM compound, 48 h) was “Dark, R, S”. For the same compound, the schistosomula severity score [2, 4] was 3, the schistosomula severity score [2, 5] was 4 and the schistosomula severity score [2, 6] was 1. It also gave a schistosomula severity score [2, 7] of 4 and a schistosomula severity score [2, 8] of 4.
`COC1=CC(=O)N(C(=O)/C=C/[C@H](Cc2ccccc2)NC(=O)[C@H](CC(C)C)NC(=O)[C@H](CC(C)C)OC(=O)[C@H](Cc2ccccc2)N(C)C)[C@H]1C` [compound 12] was tested, and the “decrease in inhibition potency vs 8” value [1] was 4.2–49 fold, the “SmCB1 inhibition k2nd” value [1] was 212 ± 30 M^–1·s^–1 and the schistosomula severity score [2, 3] was 1. The schistosomula phenotype descriptors ([2]; 1 µM compound, 48 h) was “Dark, R”, the schistosomula severity score [2, 4] was 2 and the schistosomula severity score [2, 5] was 4. The schistosomula phenotype descriptors ([2]; 10 µM compound, 24 h) was “Dark, R, S”, the schistosomula severity score [2, 6] was 3 and the schistosomula severity score [2, 7] was 4. For the same compound, the schistosomula severity score [2, 8] was 4.
`COC1=CC(=O)N(C(=O)/C=C/[C@H](Cc2ccccc2)NC(=O)[C@H](CC(C)C)NC(=O)[C@H](CC(C)C)OC(=O)[C@H](Cc2ccccc2)N(C)C)[C@@H]1Cc1ccccc1` [compound 13] was tested, and the “improvement of inhibition vs 17” value [1, 9] was 6 fold, the “SmCB1 inhibition k2nd” value [1] was 109 ± 2 M^–1·s^–1 and the schistosomula severity score [2, 3] was 0. For the same compound, the schistosomula severity score [2, 4] was 2, the schistosomula severity score [2, 5] was 4 and the schistosomula phenotype descriptors ([2]; 10 µM compound, 24 h) was “Dark, R”. The schistosomula severity score [2, 6] was 2, the schistosomula severity score [2, 7] was 4 and the schistosomula severity score [2, 8] was 4.
With `CCC(C)C(C(=O)OC(CC(C)C)C(=O)NC(CC(C)C)C(=O)NC(C=CC(=O)N1C(=O)C=C(OC)C1Cc1ccccc1)Cc1ccccc1)N(C)C` (stereo not drawn) [compound 14] the “decrease in inhibition potency vs 8” value [1] was 4.2–49 fold, the “SmCB1 inhibition k2nd” value [1] was 54.5 ± 1.3 M^–1·s^–1 and the schistosomula severity score [2, 3] was 0. The schistosomula severity score [2, 4] was 3, the schistosomula severity score [2, 5] was 4 and the schistosomula severity score [2, 6] was 1. The schistosomula severity score [2, 7] was 4 and the schistosomula severity score [2, 8] was 4.
In the case of `CCC(C)C(C(=O)OC(CC(C)C)C(=O)NC(CC(C)C)C(=O)NC(C=CC(=O)N1C(=O)C=C(OC)C1Cc1ccccc1)Cc1ccccc1)N(C)C` (stereo not drawn) [compound 15], the “decrease in inhibition vs 7” value ([1]; Phe in R1 changed from S to R configuration) is reported as 23 fold, the “improvement of inhibition vs 18” value [1, 9] is reported as 2.6 fold and the “SmCB1 inhibition k2nd” value [1] is reported as 41.6 ± 1.6 M^–1·s^–1. The schistosomula severity score [2, 3] was 0, the schistosomula severity score [2, 4] was 3 and the schistosomula phenotype descriptors ([2]; 10 µM compound, 24 h) was “Dark, R”. For the same compound, the schistosomula severity score [2, 6] was 2, the schistosomula severity score [2, 7] was 4 and the schistosomula severity score [2, 8] was 4.
With `CCC(C)C(C(=O)OC(CC(C)C)C(=O)NC(CC(C)C)C(=O)NC(C)CCC(=O)N1C(=O)C=C(OC)C1C)N(C)C` (stereo not drawn) [compound 16] the “decrease in k2nd” value ([1]; absence of a double bond in the acrylamide group) was 2 orders of magnitude, the “SmCB1 inhibition k2nd” value [1] was 36.9 ± 0.3 M^–1·s^–1 and the schistosomula severity score [2, 3] was 0. It also gave a schistosomula severity score [2, 4] of 0, a schistosomula severity score [2, 5] of 0 and a schistosomula severity score [2, 6] of 0. The schistosomula phenotype descriptors ([2]; 10 µM compound, 48 h) was “Dark, R”, the schistosomula severity score [2, 7] was 2 and the schistosomula phenotype descriptors ([2]; 10 µM compound, 72 h) was “Dark, R”. The schistosomula severity score [2, 8] was 2.
With `COC1=CC(=O)N(C(=O)/C=C/[C@H](Cc2ccccc2)NC(=O)[C@H](CC(C)C)NC(=O)[C@H](CC(C)C)OC(=O)[C@H](Cc2ccccc2)N(C)C)[C@H]1Cc1ccccc1` [compound 17] the “decrease in inhibition potency vs 8” value [1] was 4.2–49 fold, the “SmCB1 inhibition k2nd” value [1] was 18.2 ± 0.2 M^–1·s^–1 and the schistosomula severity score [2, 3] was 0. The schistosomula severity score [2, 4] was 0, the schistosomula severity score [2, 5] was 4 and the schistosomula severity score [2, 6] was 1. For the same compound, the schistosomula severity score [2, 7] was 4 and the schistosomula severity score [2, 8] was 4.
